The test system of this experiment is COMI cells. Type of experiment: cell-based, Human.

As for `CC[C@@]1(O)C(=O)OCc2c1cc1n(c2=O)Cc2cc3ccccc3nc2-1` [camptothecin], the p53 level entry is “massively upregulate p53”.

The record behind these values is paper PMC10051910 (Marine Drugs, 2023).
